Experimental data published in US20080199489A1, “SKIN TREATMENT FORMULATIONS AND METHOD” (priority 2007, published 2008).

Key:
[1] = Ozone output of ozonized formulations tested with a commercial ozone sensor; assay type: physicochemical; details: added to seaweed-containing ozonized formulations
Experimental: Cholecalciferol, vitamin D3, also known as the sunshine vitamin, aids in tissue regeneration and healing. […] For this reason it was determined that a certain amount of vitamin D3 increases the effectiveness of formulations containing seaweeds, especially those containing callophycus serratus.
The mask is used after the water broth cleansing and activating serum activation steps. As for the serum the inventor has observed a synergistic efficacy by using the combination of treatments. Also as for the serum the exact mechanism is yet to be understood, but the mask provides yet a third matrix for the preparation, storage and application of the active ingredients. As for the formulations previously described the mask is prepared from a selection of ingredients form each of the defined categories of teas, Algaes and seaweeds, herbal plant extracts and oils, flower extracts, fruit extracts, vegetable extracts, butters and oils, and finally other additives as indicated in the formulation lists below. […] The mask is prepared from freeze dried and powdered extracts of the indicated ingredients. The water broth described above is also an ingredient in the mask. The other ingredients are added as preservatives, solvents, and viscosity control agents and are not part of the active ingredients, but rather are a delivery system. […]

chronic rosacea = test: Example 2: treatment of a patient with chronic rosacea; assay type: in vivo, human; details: person, topical
Text: A person suffered from chronic rosacea. Medical practitioner proscribed regular use of a steroidal cortisone anti-inflammatory cream. […] Patient was concerned about side effects of long term cortisone application. […] Improvement however could not be maintained even with regular treatment several times weekly.

[2] = system: basal cell carcinoma and pre-cancerous inflammation; test: Example 1: treatment of a patient with basal cell carcinoma and pre-cancerous inflammation; assay type: in vivo, human
Text: The treatment procedure comprises application of each of the above described formulations in the order of cleansing with the water broth, activating with both the water broth and the activating serum, treatment with the mask formulation that entraps active ingredients against the affected skin and finally sealing and protecting the treated area with the cream. The affected area is first washed using the water broth. Activating serum is then applied to the skin. The water broth solution is put into the dispensing cup of aerosol generating device such as sold under the brand name Dermoxyzone Nebulizing Nanoparticle Infuser™, which infuses the nanoparticle sizes of the ozonated water broth into the epidermal layer. Absorption is optimized due to the activating serum's ability to pull moisture into the epidermis in greater amounts than could be absorbed without application of the activating serum. The Gel is not completely removed before applying the mask. The gel is wiped down with a cotton pad, leaving a residue on the skin. The mask is then applied over the residual gel covered area of the skin. The mixing serum and the powdered mask base are blended in a ratio of one to one, by volume, to form the mask just prior to use. For the treatment of one cheek for example, one tablespoon each of the powder and mixing serum are typically used. […]

SMILES: C=C1CC[C@H](O)C/C1=C/C=C1\CCC[C@]2(C)[C@@H]([C@H](C)CCCC(C)C)CC[C@@H]12 [Cholecalciferol]
- ozone output / amount of ozone released from ozonated formulations [1]: increased the ozone output
- ozone output / amount of ozone released from ozonated formulations ([1]; listed as cholecalciferol): increased significantly

SMILES: C[C@]12CCC(=O)C=C1CC[C@@H]1[C@@H]2C(=O)C[C@@]2(C)[C@H]1CC[C@]2(O)C(=O)CO [1% cortisone, cortisone]
- effect on rosacea inflammation (chronic rosacea): controlled most inflammation outbreaks

SMILES: N#N [liquid nitrogen]
- adverse effect of treatment ([2]; conventional treatment by medical practitioner): scarring
- outcome of cancer / cancerous tissue ([2]; person): cancerous tissue reappeared within a few months of treatment
